This is an account of results in US8163763B2, “Pyrimidine compounds, compositions and methods of use” (Genentech, Inc., priority 2008, dated 2012).

mTOR kinase (purified recombinant mTOR(1360-2549)+GBL), sequence (P42345 1360-2549): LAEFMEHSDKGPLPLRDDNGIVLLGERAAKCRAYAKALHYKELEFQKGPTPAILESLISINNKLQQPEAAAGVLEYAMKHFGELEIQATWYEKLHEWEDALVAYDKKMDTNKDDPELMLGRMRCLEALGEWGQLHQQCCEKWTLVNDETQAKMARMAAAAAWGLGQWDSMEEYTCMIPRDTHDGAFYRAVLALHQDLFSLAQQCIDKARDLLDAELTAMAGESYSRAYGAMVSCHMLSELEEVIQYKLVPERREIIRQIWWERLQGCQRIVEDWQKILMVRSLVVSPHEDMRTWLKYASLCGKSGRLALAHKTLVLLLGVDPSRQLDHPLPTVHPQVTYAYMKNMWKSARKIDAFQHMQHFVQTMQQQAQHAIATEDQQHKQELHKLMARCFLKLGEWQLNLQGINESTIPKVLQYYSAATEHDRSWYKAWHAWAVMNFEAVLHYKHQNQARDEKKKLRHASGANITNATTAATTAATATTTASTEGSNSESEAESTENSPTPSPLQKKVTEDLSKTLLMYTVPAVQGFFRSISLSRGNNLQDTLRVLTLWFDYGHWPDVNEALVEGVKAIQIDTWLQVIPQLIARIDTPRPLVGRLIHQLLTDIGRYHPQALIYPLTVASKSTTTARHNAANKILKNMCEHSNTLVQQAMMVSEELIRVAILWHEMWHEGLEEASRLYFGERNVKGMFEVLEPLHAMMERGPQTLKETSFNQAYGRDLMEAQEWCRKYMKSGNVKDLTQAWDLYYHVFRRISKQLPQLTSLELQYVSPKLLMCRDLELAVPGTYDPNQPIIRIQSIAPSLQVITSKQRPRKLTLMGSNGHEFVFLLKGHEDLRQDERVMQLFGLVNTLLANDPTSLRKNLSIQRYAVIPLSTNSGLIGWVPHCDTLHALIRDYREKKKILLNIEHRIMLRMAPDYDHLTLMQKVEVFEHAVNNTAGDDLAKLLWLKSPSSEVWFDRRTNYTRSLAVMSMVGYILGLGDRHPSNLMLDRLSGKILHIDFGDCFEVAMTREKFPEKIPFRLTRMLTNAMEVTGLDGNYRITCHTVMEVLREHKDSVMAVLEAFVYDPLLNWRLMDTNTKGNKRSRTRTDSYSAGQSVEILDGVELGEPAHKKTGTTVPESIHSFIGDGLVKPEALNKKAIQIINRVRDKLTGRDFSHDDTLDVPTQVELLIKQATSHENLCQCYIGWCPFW
mTOR kinase (purified recombinant mTOR(1360-2549)+GBL), sequence (Q9BVC4 whole entry partner): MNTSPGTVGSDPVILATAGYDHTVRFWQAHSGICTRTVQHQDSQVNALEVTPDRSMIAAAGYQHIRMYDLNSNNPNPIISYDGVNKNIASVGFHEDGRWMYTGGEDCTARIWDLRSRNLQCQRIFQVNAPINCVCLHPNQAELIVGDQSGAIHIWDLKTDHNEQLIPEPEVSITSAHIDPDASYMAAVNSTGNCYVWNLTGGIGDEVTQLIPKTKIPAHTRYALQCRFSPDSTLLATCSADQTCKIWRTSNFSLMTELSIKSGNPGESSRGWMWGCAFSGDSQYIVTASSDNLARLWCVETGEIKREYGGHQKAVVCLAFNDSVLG

One assay addresses mTOR kinase (purified recombinant mTOR(1360-2549)+GBL) (Homo sapiens, UniProt P42345). As to the kind of experiment: In vitro mTOR kinase assay (TR-FRET). In kind it is biochemical. The note with it: class of Ki in the mTOR kinase assay; read-out: mTOR Activity Level. An excerpt: a. In vitro mTOR Kinase Assay
The reaction is stopped by an addition of a Terbium-labeled phospho-specific antibody, e.g., Tb-labeled anti-p4E-BP1 T37/T46, (Invitrogen, product #PR8835A), EDTA, and TR-FRET buffer solution (Invitrogen, Product #PR3756B). Product formation is detected by way of time-resolved fluorescence resonance energy transfer (TR-FRET), which occurs when the phosphorylated substrate and labeled antibody are in close proximity due to phospho-specific binding. Enzymatic activity is measured as an increase in TR-FRET signal using a Perkin Elmer Envision plate reader.
Compound activity is tested in 10 point dose curves starting at the highest final concentration of 10 uM. They are serially diluted in 100% DMSO prior to further dilution with assay buffer. […] 8 μL of solution containing 2 nM Tb-anti-p4E-BP1 antibody & 10 mM EDTA diluted TR-FRET buffer is then added and incubated for 30 minutes to stop the reaction. The plate is scanned with the Envision plate reader. Ki values are calculated in Assay Explorer using the Morrison ATP-competitive tight binding equation for Ki apparent determination.
In the case of `CCNC(=O)Nc1ccc(-c2nc3c(c(N4CCOCC4)n2)CN(c2ccnc(N)n2)C3)cc1`, the Ki is less than 100 nM.
Same read-out and setting: the same measure for `CCNC(=O)Nc1ccc(-c2nc3c(c(N4CCOCC4)n2)CN(C(=O)OCc2ccccc2)C3)cc1`: less than 100 nM.
As for `CCNC(=O)Nc1ccc(-c2nc3c(c(N4CCOCC4)n2)CN(C(=O)OCC)C3)cc1`, the Ki is less than 100 nM.
The same measure, in the same setting: in the case of `CCNC(=O)Nc1ccc(-c2nc3c(c(N4CCOCC4)n2)CN(c2ccnc(N)n2)CC3)cc1` it was less than 100 nM.
Take `CCNC(=O)Nc1ccc(-c2nc3c(c(N4CCOCC4)n2)CN(C(=O)c2ccccn2)CC3)cc1`: the Ki was less than 100 nM.
On the same count and under the same terms, the same measure for `CCNC(=O)Nc1ccc(-c2nc3c(c(N4CCOCC4)n2)CCN(c2ncccn2)C3)cc1`: less than 100 nM; for `CCNC(=O)Nc1ccc(-c2nc3c(c(N4CCOCC4)n2)CCN(c2ccnc(N)n2)C3)cc1`: less than 100 nM.
Same read-out and setting: the same measure for `CCNC(=O)Nc1ccc(-c2nc3c(c(N4CCOCC4)n2)CN(Cc2ccc(O)cc2)C3)cc1`: less than 100 nM; for `CCNC(=O)Nc1ccc(-c2nc3c(c(N4CCOCC4)n2)CN(C2CCN(C(C)=O)CC2)C3)cc1`: less than 100 nM; for `CCNC(=O)Nc1ccc(-c2nc3c(c(N4CCCOCC4)n2)CN(C(=O)OC(C)(C)C)C3)cc1`: less than 100 nM.
On the same count and under the same terms, the same measure for `CCNC(=O)Nc1ccc(-c2nc3c(c(N4CCCOCC4)n2)CN(S(=O)(=O)c2ccccc2)C3)cc1`: less than 100 nM; for `CCNC(=O)Nc1ccc(-c2nc3c(c(N4CCCOCC4)n2)CN(S(C)(=O)=O)C3)cc1`: less than 100 nM.
Take `CCNC(=O)Nc1ccc(-c2nc3c(c(N4CCCOCC4)n2)CN(c2ncccn2)C3)cc1`: the Ki was less than 100 nM.
Still for that read-out and setting: the same measure for `CCNC(=O)Nc1ccc(-c2nc3c(c(N4CCOCC4)n2)CCN(C(=O)OCc2ccccc2)C3)cc1`: less than 100 nM; for `CCNC(=O)Nc1ccc(-c2nc3c(c(N4CCOCC4)n2)CCN(C(=O)c2ccccn2)C3)cc1`: less than 100 nM.
Still for that read-out and setting: in the case of `CCNC(=O)Nc1ccc(-c2nc3c(c(N4CCOCC4)n2)CCN(C(=O)c2cccnc2)C3)cc1` it was less than 100 nM; in that of `CCNC(=O)Nc1ccc(-c2nc3c(c(N4CCOCC4)n2)CCN(C(=O)c2ccncc2)C3)cc1`, less than 100 nM.
Still for that read-out and setting: in the case of `CCNC(=O)Nc1ccc(-c2nc3c(c(N4CCOCC4)n2)CCN(C2CCN(C)CC2)C3)cc1` it was less than 100 nM; in that of `CCNC(=O)Nc1ccc(-c2nc3c(c(N4CCCOCC4)n2)CCN(C(C)=O)C3)cc1`, less than 100 nM; in that of `CCNC(=O)Nc1ccc(-c2nc3c(c(N4CCCOCC4)n2)CCN(C(=O)OCc2ccccc2)C3)cc1`, less than 100 nM.
For `CCNC(=O)Nc1ccc(-c2nc3c(c(N4CCCOCC4)n2)CCN(c2ncccn2)C3)cc1`, the Ki is less than 100 nM.
Turning to `CCNC(=O)Nc1ccc(-c2nc3c(c(N4CCCOCC4)n2)CN(C2CCN(C(C)=O)CC2)C3)cc1`, the Ki was less than 100 nM.
On to `CC(=O)Nc1ccc(-c2nc3c(c(N4CCOCC4)n2)CN(c2ncccn2)C3)cc1`, for which the Ki lay in the range of 100 to 5000 nM.
The same measure, in the same setting: in the case of `CC(=O)Nc1cccc(-c2nc3c(c(N4CCOCC4)n2)CN(c2ncccn2)C3)c1` it was 100 to 5000 nM.
On the same count and under the same terms, in the case of `CN(C)C(=O)Nc1ccc(-c2nc3c(c(N4CCOCC4)n2)CN(c2ncccn2)C3)cc1` it was 100 to 5000 nM; in that of `CS(=O)(=O)Nc1ccc(-c2nc3c(c(N4CCOCC4)n2)CN(c2ncccn2)C3)cc1`, 100 to 5000 nM.
The same measure, in the same setting: the same measure for `NC(=O)c1ccc(-c2nc3c(c(N4CCOCC4)n2)CN(c2ncccn2)C3)cc1`: 100 to 5000 nM; for `CCNC(=O)Nc1ccc(-c2nc3c(c(N4CCOC[C@@H]4C)n2)CNCC3)cc1`: less than 100 nM.
Consider `CCNC(=O)Nc1ccc(-c2nc3c(c(N4CCOC[C@@H]4C)n2)CN(c2ccnc(N)n2)CC3)cc1`, for which the Ki was less than 100 nM.
The same measure, in the same setting: in the case of `CCNC(=O)Nc1ccc(-c2nc3c(c(N4CCOC[C@@H]4C)n2)CCN(C(=O)OC(C)(C)C)C3)cc1` it was less than 100 nM.
Same read-out and setting: the same measure for `CCNC(=O)Nc1ccc(-c2nc3c(c(N4CCOC[C@@H]4C)n2)CCNC3)cc1`: less than 100 nM; for `Cc1nnc(-c2ccc(-c3nc4c(c(N5CCOCC5)n3)CCN(c3ncccn3)C4)cc2)o1`: 100 to 5000 nM; for `c1cnc(N2CCc3c(nc(-c4ccc(-n5cccn5)cc4)nc3N3CCOCC3)C2)nc1`: 100 to 5000 nM.
On the same count and under the same terms, the same measure for `O=c1[nH]c2ccc(-c3nc4c(c(N5CCOCC5)n3)CCN(c3ncccn3)C4)cc2[nH]1`: 100 to 5000 nM.
With `CCCNC(=O)Nc1ccc(-c2nc3c(c(N4CCOCC4)n2)CCN(c2ncccn2)C3)cc1`, the Ki is 100 to 5000 nM.
On the same count and under the same terms, in the case of `CC(C)NC(=O)Nc1ccc(-c2nc3c(c(N4CCOCC4)n2)CCN(c2ncccn2)C3)cc1` it was 100 to 5000 nM; in that of `O=C(NCCO)Nc1ccc(-c2nc3c(c(N4CCOCC4)n2)CCN(c2ncccn2)C3)cc1`, 100 to 5000 nM; in that of `O=C(NCC1CC1)Nc1ccc(-c2nc3c(c(N4CCOCC4)n2)CCN(c2ncccn2)C3)cc1`, less than 100 nM.
On the same count and under the same terms, in the case of `CCNC(=O)Nc1ccc(-c2nc3c(c(N4CCOC[C@@H]4C)n2)CCN(c2ccnc(N)n2)C3)cc1` it was less than 100 nM.
Still for that read-out and setting: in the case of `CCNC(=O)Nc1ccc(-c2nc3c(c(N4CCOCC4)n2)CCN(C(=O)c2cnco2)C3)cc1` it was less than 100 nM; in that of `CCNC(=O)Nc1ccc(-c2nc3c(c(N4CCOCC4)n2)CCN(C(=O)c2cocn2)C3)cc1`, less than 100 nM.
With `CCNC(=O)Nc1ccc(-c2nc3c(c(N4CCOCC4)n2)CCN(C(=O)c2ccnn2C)C3)cc1`, the Ki was less than 100 nM.
The same measure, in the same setting: in the case of `CCNC(=O)Nc1ccc(-c2nc3c(c(N4CCOCC4)n2)CCN(C(=O)[C@H](C)O)C3)cc1` it was less than 100 nM; in that of `CCNC(=O)Nc1ccc(-c2nc3c(c(N4CCOCC4)n2)CCN(C(=O)c2c(C)oc4ncn(C)c(=O)c24)C3)cc1`, less than 100 nM; in that of `CCNC(=O)Nc1ccc(-c2nc3c(c(N4CCOCC4)n2)CCN(C(=O)N2CCOCC2)C3)cc1`, less than 100 nM.
As for `O=C(Nc1ccc(-c2nc3c(c(N4CCOCC4)n2)CCN(c2ncccn2)C3)cc1)NC1CC1`, the Ki is less than 100 nM.
Still for that read-out and setting: the same measure for `O=C(Nc1ccc(-c2nc3c(c(N4CCOCC4)n2)CCN(c2ncccn2)C3)cc1)NC1CCC1`: less than 100 nM; for `CCNC(=O)Nc1ccc(-c2nc3c(c(N4CCOCC4)n2)CNCC3)cc1`: less than 100 nM.
Same read-out and setting: in the case of `CCNC(=O)Nc1ccc(-c2nc3c(c(N4CCOCC4)n2)CN(C(=O)c2cccnc2)CC3)cc1` it was less than 100 nM.
Same read-out and setting: the same measure for `CCNC(=O)Nc1ccc(-c2nc3c(c(N4CCOCC4)n2)CN(C(=O)c2ccncc2)CC3)cc1`: less than 100 nM; for `Nc1ccc(-c2nc3c(c(N4CCOCC4)n2)CCN(c2ncccn2)C3)cc1`: 100 to 5000 nM; for `COc1ccc(CN2Cc3c(nc(-c4cnc(N)nc4)nc3N3CCOCC3)C2=O)cc1`: 100 to 5000 nM.
`CS(=O)(=O)Nc1ccc(-c2nc3c(c(N4CCOCC4)n2)CN(Cc2ccccc2)C3=O)cc1`: the Ki is 100 to 5000 nM.
Same read-out and setting: in the case of `CNC(=O)Nc1ccc(-c2nc3c(c(N4CCOCC4)n2)CN(Cc2ccc(OC)cc2)C3=O)cc1` it was less than 100 nM.
On the same count and under the same terms, in the case of `CC(=O)Nc1ccc(-c2nc3c(c(N4CCOCC4)n2)CN(Cc2ccccc2)C3=O)cc1` it was 100 to 5000 nM; in that of `CCNC(=O)Nc1ccc(-c2nc3c(c(N4CCOCC4)n2)CN(C(=O)c2ccccc2Cl)CC3)cc1`, less than 100 nM; in that of `CCNC(=O)Nc1ccc(-c2nc3c(c(N4CCOCC4)n2)CN(C(=O)c2ccc(Cl)cc2)CC3)cc1`, less than 100 nM.
Same read-out and setting: in the case of `CCNC(=O)Nc1ccc(-c2nc3c(c(N4CCOCC4)n2)CN(C(=O)/C=C/c2ccccc2)CC3)cc1` it was less than 100 nM; in that of `CC(C)(C)OC(=O)N1Cc2nc(-c3cnc(N)nc3)nc(N3CCOCC3)c2C1`, 100 to 5000 nM; in that of `CCNC(=O)Nc1ccc(-c2nc3c(c(C4CCOCC4)n2)CN(C(=O)OC(C)(C)C)C3)cc1`, 100 to 5000 nM.
Turning to `CCNC(=O)Nc1ccc(-c2nc3c(c(C4=CCOCC4)n2)CCN(c2ncccn2)C3)cc1`, the Ki lay in the range of 100 to 5000 nM.
On the same count and under the same terms, in the case of `CCNC(=O)Nc1ccc(-c2nc3c(c(C4CCOCC4)n2)CCN(c2ncccn2)C3)cc1` it was 100 to 5000 nM; in that of `CCNC(=O)Nc1ccc(-c2nc3c(c(-c4cccnc4)n2)CCN(Cc2ccccc2)C3)cc1`, 100 to 5000 nM.
On the same count and under the same terms, the same measure for `CCNC(=O)Nc1ccc(-c2nc3c(c(N4CCOCC4)n2)CN(Cc2ccccc2)C3)cc1`: less than 100 nM; for `CCNC(=O)Nc1ccc(-c2nc3c(c(N4CCOCC4)n2)CN(Cc2cccc(O)c2)C3)cc1` [drawing 553]: less than 100 nM; for `CCNC(=O)Nc1ccc(-c2nc3c(c(N4CCCOCC4)n2)CN(C(=O)OCc2ccccc2)C3)cc1` [drawing 567]: less than 100 nM.
The same measure, in the same setting: in the case of `O=C(Nc1ccc(-c2nc3c(c(N4CCOCC4)n2)CN(c2ncccn2)C3)cc1)NC1CCCC1` [drawing 572] it was less than 100 nM.
As to `c1cnc(N2CCc3c(nc(-c4ccc5[nH]ncc5c4)nc3N3CCOCC3)C2)nc1` [drawing 585], the Ki lay in the range of 100 to 5000 nM.
In the case of `CCNC(=O)Nc1ccc(-c2nc3c(c(N4CCOCC4)n2)CN(C(=O)Cc2ccccc2)CC3)cc1` [drawing 603], the Ki was less than 100 nM.

Still in this assay, the particulars now being: mTOR kinase assay of Example 496; read-out: Ki.
For `CC(=O)Nc1ccc(-c2nc3c(c(N4CCCOCC4)n2)CN(Cc2ccccc2)C3=O)cc1`, the Ki worked out at 252 nM.
The same measure, in the same setting: in the case of `CCNC(=O)Nc1ccc(-c2nc3c(c(N4CCOCC4)n2)CCN2C(=O)N(CC)CC[C@@H]32)cc1` it was 5 nM; in that of `CCNC(=O)Nc1ccc(-c2nc3c(c(N4CCOC[C@@H]4C)n2)CCN(c2nc(C)cc(C)n2)C3)cc1`, 4 nM.
For `C[C@H]1COCCN1c1nc(-c2ccc(NC(=O)NCC(F)F)cc2)nc2c1CN(C(=O)c1nccs1)CC2`, the Ki was determined as 32 nM.
Still for that read-out and setting: in the case of `CC(C)(C)OC(=O)N1Cc2nc(-c3cnc(N)nc3)nc(C3C=COCC3)c2C1` (centres unmarked) it was 753 nM.
